According to patent US8796241B2, “Therapy of tumors and infectious agents deficient in methylthioadenosine phosphorylase” (priority 2007, dated 2014):

Experiments:
MTAP(+) HF cells = assay: Coculture of HF and A549-ouaR cells, clonogenic assay; type: cell-based, human; settings: addition of 5′-dAdo to DAP
Protocol: Cell viability of adherent cell types was measured by clonogenic assay as follows: after releasing cells with trypsin and removing a portion of the cell suspension for Coulter counting, the remainder of the cell suspension was plated in serial dilutions in growth medium, without drugs. After a period sufficient for clones to reach a size visible by eye (usually 2 to 3 weeks), clones were stained with crystal violet in a saline/methanol solution. Dishes that had fewer than 100 clones were deemed suitable for counting. From these counts and from the dilution factors, the approximate number of viable cells, in the parent treatment dishes, was calculated. […] In clonogenic assays, clone size was often variable, especially after treatment with toxic drugs. Moreover, many of the very small clones may have arisen from cells detached during the weeks of incubation. […] Cloning efficiency for healthy, growing A549 cells was about 50%; for HF cells, efficiency was quite variable, ranging from 25 to 75% (perhaps because the HF cell stock varied, from experiment to experiment, in passage number).
HF and A549-ouaR (a ouabain-resistant derivative of the human lung carcinoma cell line A549, isolated by Applicants) cells were cultured together in a medium containing DAP, and with or without 5′-dAdo. After 3 days, cultures were trypsinized and serially diluted into fresh medium for clonogenic assays. Some dishes were treated with 0.1 μM ouabain to kill HF cells and permit easy visualization of surviving A549-ouaR clones. Initial viable cells: HF cells, 11,000; A549-ouaR cells, 40,000.

MTAP(+) ML-1 cells = assay: Coulter counts of ML-1 suspension cultures; type: cell-based
Protocol: For cell types that grow in suspension (e.g., ML-1, HL-60, K-562) medium was RPMI-1640 with 10% FBS (undialyzed).
For adherent cell types, cell numbers were determined periodically by releasing cells with trypsin (dead cells that were no longer adherent were removed by two prior rinses of the culture dish) and placing a portion of the resulting cell suspension in a Coulter counter. For cell types that grow in suspension, portions of the culture were counted directly, without trypsin treatment. Coulter counts of cells from each dish were done twice, and almost all experiments were done in duplicate. In the presentation of results, raw data for Coulter counts is given in some cases, while in others, counts have been rounded off to two to three significant figures. (Background Coulter counts—i.e., counts of diluent alone—were insignificant.)
For cells that grow in suspension, the effect of treatments was assessed solely by changes in Coulter count.
• ML-1 cells were incubated in RPMI 1640 with 10% FBS with 5′-dAdo (60 μM) for 6 hours. 5-fluorouracil (FU), 6-thioguanine (TG), or 2,6-diaminopurine (DAP) were then added, and after 2 additional days, 0.5 ml was taken for Coulter counts. Initial Coulter count/ml: 308,000

[1] = system: MTAP(+) hematopoietic cell progenitors; assay: Assay of colony-forming cells from mouse bone marrow; type: cell-based; settings: 5′-dAdo at doses as low as 15 μM
Source text: Method: The procedure for assay of colony-forming cells from mouse bone marrow was similar to methods described in the literature (see e.g., B. A. Teicher et al, Cancer Research, 47:513-518, 1987). In brief, cells were flushed from the femurs of Swiss mice, counted, and seeded into six-well tissue culture plates with supplemented McCoy's 5A medium, 15% FBS, 10 to 20% L929-cell conditioned medium as a source of colony-stimulating activity (L929 is MTAP-negative), 0.3% agar, and penicillin/streptomycin (op. cit. B. A. Teicher et al). Cells were seeded at two different densities: 50,000 and 250,000 cells per well. Control wells contained either no drugs, or adenine at 15 or 30 μM, or 5′-deoxyadenosine (5′-dAdo) at 15, 30, or 45 μM. Treatment wells contained 6-methylpurine (MeP) at 5 or 15 μM, 5′-deoxyadenosine (5′-dAdo) at 15 or 30 μM, and adenine at 15 or 30 μM, in various combinations. After eight days of incubation at 37° C. in a humidified 5% CO2 atmosphere, wells were fixed by the addition of 1 ml of 5% glutaraldehyde. Photographs were taken of a randomly selected portion of each well, as viewed (at fixed magnification) through a Nikon inverted microscope equipped with a camera.

MTAP-negative cell lines = assay: Applicants' tissue culture experiments on MTAP-negative cell lines (summary statements); type: cell-based, human; mouse; settings: L1210, HL-60, K-562, MCF7, MDA-MB-231, A549, PANC-1

For `C[C@H]1O[C@@H](n2cnc3c(N)ncnc32)[C@H](O)[C@@H]1O` [5′-dAdo, 5′-deoxyadenosine], the “protection of HF cells from DAP in coculture” value (MTAP(+) HF cells) was “protected”, the “Increase in cell number/ml, 60 μM 5′-dAdo” value (MTAP(+) ML-1 cells; 5′-dAdo 60 μM for 6 hours, then 2 days with FU 3 μM, TG 20 μM, DAP 50 μM where present, initial Coulter count/ml 308,000) was 918,000 /ml and the “protection against growth inhibition caused by FU, TG and DAP, individually and in combination” value (MTAP(+) ML-1 cells; Example 14) was “effectively protected”. The “blocking of MeP toxicity to murine hematopoietic progenitors” value [1] was “effectively blocked” and the “protection against the toxicity of adenine and/or methionine antagonists” value (MTAP-negative cell lines) was “inability”.
